Measured values as given in US20130116302A1, “PHARMACEUTICAL COMPOSITION FOR THE TREATMENT OF CHLAMYDIAL INFECTION” (Max-Planck-Gesellschaft zur Foerderung der Wissenschaften …, priority 2010, published 2013).
Read-outs that look alike come from different tables or passages of the source.

Assays:
[1] = test system: Chlamydia; assay: effect of chemical inhibitors of GMPS on Chlamydia infection; type: cell-based; details: for Chlamydia replication: chemical inhibitor of GMPS added to infected cells
Method: The effect of chemical inhibitors of GMPS on Chlamydia infection was tested.

[2] = test system: Chlamydia trachomatis (Ctr); details: 10 μM or 100 μM U0126 added 2 h after infection; lysed 48 h p.i.; FIG. 3D
Method: (§1) Western blotting analysis (30 hours post-infection) of (A) uninfected and Ctr-infected cells with and without U0126, (B) uninfected and Ctr-infected cells transfected with siRNAs targeting luciferase or MEK1 and 2, and (C) uninfected and Ctr-infected cells transfected with siRNAs targeting luciferase, K-Ras, or Raf-1. β-actin was used as a loading control. (D) Uninfected and Ctr-infected cells treated with or without UO126 were lysed at 48 hours post-infection and these samples were used to infect freshly seeded cells. These cells were fixed 24 hours post-infection and the infectivity was quantified. Data shown are the mean±SD of three experiments normalized to mock-treated, infected cells. (E) Uninfected and Ctr-infected cells, untransfected of transfected with siRNAs specific for luciferase, K-Ras, or Raf-1 were lysed 48 hours post-infection and these samples were then used to infect freshly seeded cells. These cells were fixed 24 hours post-infection and the infectivity of the bacteria was quantified. […] Western blots depicted in (A) to (C) are representative of three experiments.

[3] = test system: ERK; details: 30 hours post-infection; FIG. 3A
Method: as §1

[4] = test system: cPLA2; details: 30 hours post-infection; FIG. 3A
Method: as §1

[5] = test system: Ctr; details: Su et al., 2004; cited from earlier work
[6] = test system: cPLA2; details: Su et al., 2004; cited from earlier work
[7] = target: GMPS (Escherichia coli, UniProt P04079); details: Chittur et al., 2001, cited from earlier work
Sequence of GMPS (P04079 whole entry): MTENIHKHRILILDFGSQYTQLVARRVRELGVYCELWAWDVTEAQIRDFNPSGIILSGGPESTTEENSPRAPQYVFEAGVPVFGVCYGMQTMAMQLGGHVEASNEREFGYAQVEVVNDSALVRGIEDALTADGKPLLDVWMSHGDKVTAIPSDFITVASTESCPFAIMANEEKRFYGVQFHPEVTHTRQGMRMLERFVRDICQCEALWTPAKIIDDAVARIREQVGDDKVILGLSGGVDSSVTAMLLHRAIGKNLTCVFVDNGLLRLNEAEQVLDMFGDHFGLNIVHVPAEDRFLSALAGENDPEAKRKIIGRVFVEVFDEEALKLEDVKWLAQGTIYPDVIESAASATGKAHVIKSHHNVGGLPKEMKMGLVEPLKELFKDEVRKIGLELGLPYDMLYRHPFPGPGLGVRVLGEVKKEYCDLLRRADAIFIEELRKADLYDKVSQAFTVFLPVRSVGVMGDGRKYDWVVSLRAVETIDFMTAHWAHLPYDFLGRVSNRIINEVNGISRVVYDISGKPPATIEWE

[8] = test system: PPAT, GMPS, CAD, CTPS; details: de novo pathway of purine and pyrimidine synthesis; cited from earlier work
[9] = test system: cellular UTP, CTP, GMP, ATP, ITP; details: Neil et al., 1979; cited from earlier work
[10] = test system: Leishmania donovani; details: vector and host form; cited from earlier work
[11] = test system: P. falciparum; details: in vitro; cited from earlier work
[12] = test system: bloodstream T. brucei; details: bloodstream T. brucei in culture; cited from earlier work
[13] = test system: bloodstream T. brucei; details: mouse model; cited from earlier work
[14] = test system: C. trachomatis L2; assay: genome-wide siRNA-based screen in human epithelial cells, formation of Chlamydia infectious progeny; type: cell-based; details: Table 1b, primary screen, genes of nucleotide metabolism
Text: We performed a genome-wide siRNA-based screen in human epithelial cells to identify host cell factors that are essential for Chlamydia infection using the Qiagen Hu_Genome Set V1.0 and the Human Druggable Genome siRNA Set V2.0. C. trachomatis L2 was used.

Compound: C=C1O[C@@](CO)(n2cnc3c(N)ncnc32)[C@H](O)[C@@H]1O [Decoyinine]
- Chlamydia replication [1]: no inhibitory effect

Compound: N#CC(=C(/N)Sc1ccccc1N)/C(C#N)=C(\N)Sc1ccccc1N [U0126]
- infectivity of Ctr [2]: decreased
- phosphorylation of ERK in response to infection [3]: repressed
- phosphorylation of cPLA2 in response to infection [4]: repressed
- infectivity of Ctr [5]: decreases
- extent of phosphorylation of cPLA2 [6]: reduces

Compound: N[C@H](C(=O)O)[C@@H]1CC(Cl)=NO1 [acivicin, L-[αS,5S]-α-amino-3-chloro-4,5-dihydro-5-isoxazoleacetic acid]
- Chlamydia replication after addition of the nucleotides GTP and GMP ([1]; cells to which acivicin was added): recover Chlamydia replication
- Chlamydia replication [1]: complete block
- inhibition of GMPS (γ-glutamine amidotransferase activity) [7]: inhibit
- inhibition of GMPS (γ-glutamine amidotransferase activity) ([7]; listed as Acivicin): irreversibly inhibits
- inhibition of PPAT, GMPS, CAD and CTPS [8]: inhibits
- cellular nucleotide concentrations [9]: decrease of cellular UTP, CTP, and GMP concentrations, with no alteration in ATP or ITP pools
- killing of Leishmania donovani [10]: kills both the vector and the host form
- growth of P. falciparum [11]: inhibit the growth
- antitrypanosomal activity [12]: antitrypanosomal activity
- antitrypanosomal activity [13]: antitrypanosomal activity

Compound: Hs_PDE1A_2: siRNA, target gene PDE1A (sense ACAGAGTGCTATAACTATAAA; chemistry not given here; the letters are possibly those of the target site)
- Infectivity phenotype upon Knockdown [14]: down

Compound: Hs_PDE1A_4: siRNA, target gene PDE1A (sense ACACAGAGTGCTATAACTATA; chemistry not given here; the letters are possibly those of the target site)
- Infectivity phenotype upon Knockdown [14]: down

Compound: Hs_PDE2A_3: siRNA, target gene PDE2A (sense ACCGCTTTGTACATGAGAATA; chemistry not given here; the letters are possibly those of the target site)
- Infectivity phenotype upon Knockdown [14]: down

Compound: Hs_PDE2A_4: siRNA, target gene PDE2A (sense ATCGCGGAGCTGATCTACAAA; chemistry not given here; the letters are possibly those of the target site)
- Infectivity phenotype upon Knockdown [14]: down

Compound: Hs_PDE4A_2: siRNA, target gene PDE4A (sense TTCGATCTTGTCTCCAATTAA; chemistry not given here; the letters are possibly those of the target site)
- Infectivity phenotype upon Knockdown [14]: down

Compound: Hs_PDE4A_4: siRNA, target gene PDE4A (sense ATGGGAAGTCGTGTCATCCTA; chemistry not given here; the letters are possibly those of the target site)
- Infectivity phenotype upon Knockdown [14]: down

Compound: Hs_PDE4D 3: siRNA, target gene PDE4D (sense TACCCACTAATGGACAATCAA; chemistry not given here)
- Infectivity phenotype upon Knockdown [14]: down

Compound: Hs_PDE4D_4: siRNA, target gene PDE4D (sense CAGGTAGTTAAGTTAGGGTTA; chemistry not given here; the letters are possibly those of the target site)
- Infectivity phenotype upon Knockdown [14]: down

Compound: Hs_PDE6B_2: siRNA, target gene PDE6B (sense CACGCTGCTCATGACCGGCAA; chemistry not given here; the letters are possibly those of the target site)
- Infectivity phenotype upon Knockdown [14]: down

Compound: Hs_PDE6B_4: siRNA, target gene PDE6B (sense GCCCACCACATTTGACATCTA; chemistry not given here; the letters are possibly those of the target site)
- Infectivity phenotype upon Knockdown [14]: down
